Laboratory results as given in patent US20160331721A1, “COMPOSITION FOR ALLEVIATING AND PREVENTING ALZHEIMER'S DISEASE” (Sunway Biotech Co., LTD, priority 2015, published 2016).

Experiments:
[1] = system: Aβ-induced AD (Alzheimer's disease) rats; assay: Spatial probe test in water maze (Day 26); type: in vivo, SD rats
From the text: (§1) Therefore, above descriptions have completely introduce the fabricating way for this Alzheimer's disease alleviating and preventing composition. Next, a variety of experimental data will be presented in following paragraphs for proving the practicability of the Alzheimer's disease alleviating and preventing composition. Please refer to FIG. 4, which shoes an experiment grouping table.
(§2) Please continuously refer to FIG. 5, where a daily schedule diagram for the animal experiments are provided.
Next, spatial probe test is completed on Day 26. During the spatial probe test, the rest platform is removed out of the water tank. To carry out the spatial probe test, the test rat is put on the starting point 1 located in quadrant I; and then, letting the rat swim in the water tank for 90 seconds so as to record the rat's swimming route as well as the time for staying in quadrant IV. Please refer to FIG. 8, which provides swimming route records of the test rats as working the spatial navigation test.

[2] = system: Aβ-induced AD (Alzheimer's disease) rats; assay: Working memory test in water maze (Day 27); type: in vivo, SD rats; conditions: FIG. 10, compared to Aβ group
From the text: as §1, §2

## COc1cc2c(cc1OC)C(=O)C(CC1CCN(Cc3ccccc3)CC1)C2 (stereo not drawn) [Donepezil]
[1]; FIG. 8, compared to Aβ group (non-directional swimming), rest platform removed
  swimming route in spatial probe test: directly swim into the quadrant IV
[1]; FIG. 9, compared to Aβ group, target quadrant IV
  time spent for searching target quadrant: the Aβ group spend more time to find the target quadrant
[2]
  escape latency, working memory test: the Aβ group spend more time to find the target quadrant
